Laboratory results from patent US20220088016A1, “CANCER TREATMENT USING MULTI-TARGETED KINASE INHIBITOR IN COMBINATION OF PROTEIN KINASE BIOMARKERS” (ZHEJIANG CROWNMAB BIOTECH CO. LTD., priority 2019, published 2022).

Columns and labels:
BRAF (V600E) = BRAF (V600E) (Homo sapiens, UniProt P15056, V600E); assay: Kinase profiling; format: binding; conditions: read-out: % Ctrl @ 1000 nM
[1] = biological target: RSK2 (Kin.Dom.2-C-terminal) (Homo sapiens, UniProt P51812); assay: Kinase profiling; format: binding; conditions: read-out: % Ctrl @ 1000 nM
WNK4 = WNK4 (Homo sapiens, UniProt Q96J92); assay: Kinase profiling; format: binding; conditions: read-out: % Ctrl @ 1000 nM
FLT3 (ITD, F691L) = assay: Kinase profiling; format: binding
TNK2 = TNK2 (Homo sapiens, UniProt Q07912); assay: Kinase profiling; format: binding; conditions: read-out: % Ctrl @ 1000 nM
[2] = biological target: ABL1 (H396P)-nonphosphorylated (Homo sapiens, UniProt P00519, H396P); assay: Kinase profiling; format: binding; conditions: read-out: % Ctrl @ 1000 nM
SRC = SRC (Homo sapiens, UniProt P12931); assay: Kinase profiling; format: binding; conditions: read-out: % Ctrl @ 1000 nM
[3] = biological target: TYK2 (JH2domain-pseudokinase) (Homo sapiens, UniProt P29597); assay: Kinase profiling; format: binding; conditions: read-out: % Ctrl @ 1000 nM
[4] = system: F4-80 (surface marker of macrophages); assay: F4-80 IHC test in MC-38 tumor; set-up: species or system mouse; conditions: end of in vivo efficacy trial; vs vehicle group
Method: MC38 tumor tissues were collected at the end of the in vivo efficacy trial. The tumor tissue was then embedded in paraffin. The expression of CD3/CD4/CD8/F4-80 were tested by immunohistochemistry stain.

SgK110 = SgK110 (Homo sapiens, UniProt P0C264); assay: Kinase profiling; format: binding; conditions: read-out: % Ctrl @ 1000 nM
RIPK5 = RIPK5 (Homo sapiens, UniProt Q6XUX3); assay: Kinase profiling; format: binding; conditions: read-out: % Ctrl @ 1000 nM
NEK2 = biological target: T1, NEK2 (Homo sapiens, UniProt P51955); assay: Kinase profiling; format: binding; conditions: read-out: % Ctrl @ 1000 nM
T1 construct: T7 phage fusion (said for most assays); made in house

MYO3A = biological target: T2, MYO3A (Homo sapiens, UniProt Q8NEV4); assay: Kinase profiling; format: binding; conditions: read-out: % Ctrl @ 1000 nM
T2 construct: T7 phage fusion (said for most assays); made in house

CSNK1D = CSNK1D (Homo sapiens, UniProt P48730); assay: Kinase profiling; format: binding; conditions: read-out: % Ctrl @ 1000 nM
ERN1 = ERN1 (Homo sapiens, UniProt O75460); assay: Kinase profiling; format: binding; conditions: read-out: % Ctrl @ 1000 nM
FGR = FGR (Homo sapiens, UniProt P09769); assay: Kinase profiling; format: binding; conditions: read-out: % Ctrl @ 1000 nM
MARK3 = MARK3 (Homo sapiens, UniProt P27448); assay: Kinase profiling; format: binding; conditions: read-out: % Ctrl @ 1000 nM
PIK3CA = PIK3CA (Homo sapiens, UniProt P42336); assay: Kinase profiling; format: binding; conditions: read-out: % Ctrl @ 1000 nM
p38-alpha = p38-alpha (Homo sapiens, UniProt Q16539); assay: Kinase profiling; format: binding; conditions: read-out: % Ctrl @ 1000 nM
ERK8 = ERK8 (Homo sapiens, UniProt Q8TD08); assay: Kinase profiling; format: binding; conditions: read-out: % Ctrl @ 1000 nM
RET (M918T) = RET (M918T) (Homo sapiens, UniProt P07949, M918T); assay: Kinase profiling; format: binding; conditions: read-out: % Ctrl @ 1000 nM
WEE2 = WEE2 (Homo sapiens, UniProt P0C1S8); assay: Kinase profiling; format: binding; conditions: read-out: % Ctrl @ 1000 nM
EPHB1 = EPHB1 (Homo sapiens, UniProt P54762); assay: Kinase profiling; format: binding; conditions: read-out: % Ctrl @ 1000 nM
MEK6 = biological target: T3, MEK6 (Homo sapiens, UniProt P52564); assay: Kinase profiling; format: binding; conditions: read-out: % Ctrl @ 1000 nM
T3 construct: T7 phage fusion (stated for most kinases of the panel only); made in house; host or cells: T7 phage in E. coli (BL21-derived) or HEK-293 cells

KIT = KIT (Homo sapiens, UniProt P10721); assay: Kinase profiling; format: binding; conditions: read-out: % Ctrl @ 1000 nM
[5] = biological target: RSK4 (Kin.Dom.1-N-terminal) (Homo sapiens, UniProt Q9UK32); assay: Kinase profiling; format: binding; conditions: read-out: % Ctrl @ 1000 nM
NEK1 = biological target: T4, NEK1 (Homo sapiens, UniProt Q96PY6); assay: Kinase profiling; format: binding; conditions: read-out: % Ctrl @ 1000 nM
T4 construct: T7 phage fusion (said for most assays); made in house

PRKD2 = PRKD2 (Homo sapiens, UniProt Q9BZL6); assay: Kinase profiling; format: binding; conditions: read-out: % Ctrl @ 1000 nM
TNK1 = TNK1 (Homo sapiens, UniProt Q13470); assay: Kinase profiling; format: binding; conditions: read-out: % Ctrl @ 1000 nM
ERK4 = ERK4 (Homo sapiens, UniProt P31152); assay: Kinase profiling; format: binding; conditions: read-out: % Ctrl @ 1000 nM
BUB1 = BUB1 (Homo sapiens, UniProt O43683); assay: Kinase profiling; format: binding; conditions: read-out: % Ctrl @ 1000 nM
FES = FES (Homo sapiens, UniProt P07332); assay: Kinase profiling; format: binding; conditions: read-out: % Ctrl @ 1000 nM
LYN = LYN (Homo sapiens, UniProt P07948); assay: Kinase profiling; format: binding; conditions: read-out: % Ctrl @ 1000 nM
MINK = biological target: T5, MINK (Homo sapiens, UniProt Q8N4C8); assay: Kinase profiling; format: binding; conditions: read-out: % Ctrl @ 1000 nM
T5 construct: T7 phage fusion (stated for most kinases of the panel only); made in house; host or cells: T7 phage in E. coli (BL21-derived) or HEK-293 cells

FLT3-autoinhibited = FLT3-autoinhibited (Homo sapiens, UniProt P36888); assay: Kinase profiling; format: binding; conditions: read-out: % Ctrl @ 1000 nM
CDKL1 = CDKL1 (Homo sapiens, UniProt Q00532); assay: Kinase profiling; format: binding; conditions: read-out: % Ctrl @ 1000 nM
GSK3A = GSK3A (Homo sapiens, UniProt P49840); assay: Kinase profiling; format: binding; conditions: read-out: % Ctrl @ 1000 nM
STK35 = STK35 (Homo sapiens, UniProt Q8TDR2); assay: Kinase profiling; format: binding; conditions: read-out: % Ctrl @ 1000 nM

Chain of WEE2 (P0C1S8 whole entry): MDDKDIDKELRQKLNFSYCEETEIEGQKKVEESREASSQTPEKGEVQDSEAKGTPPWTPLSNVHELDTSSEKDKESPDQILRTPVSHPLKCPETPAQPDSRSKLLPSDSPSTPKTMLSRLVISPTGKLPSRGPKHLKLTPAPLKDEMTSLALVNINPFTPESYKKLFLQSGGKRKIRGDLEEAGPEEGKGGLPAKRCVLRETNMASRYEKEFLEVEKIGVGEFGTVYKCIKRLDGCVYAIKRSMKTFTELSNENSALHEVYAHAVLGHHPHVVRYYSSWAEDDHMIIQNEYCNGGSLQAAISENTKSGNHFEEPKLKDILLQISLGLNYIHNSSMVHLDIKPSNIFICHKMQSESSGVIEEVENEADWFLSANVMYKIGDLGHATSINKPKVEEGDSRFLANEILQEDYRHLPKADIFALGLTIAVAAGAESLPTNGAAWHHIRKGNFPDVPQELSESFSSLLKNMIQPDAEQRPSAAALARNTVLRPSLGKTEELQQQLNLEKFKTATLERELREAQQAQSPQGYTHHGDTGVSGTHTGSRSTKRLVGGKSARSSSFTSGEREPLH
Chain of BRAF (V600E) (P15056 whole entry V600E): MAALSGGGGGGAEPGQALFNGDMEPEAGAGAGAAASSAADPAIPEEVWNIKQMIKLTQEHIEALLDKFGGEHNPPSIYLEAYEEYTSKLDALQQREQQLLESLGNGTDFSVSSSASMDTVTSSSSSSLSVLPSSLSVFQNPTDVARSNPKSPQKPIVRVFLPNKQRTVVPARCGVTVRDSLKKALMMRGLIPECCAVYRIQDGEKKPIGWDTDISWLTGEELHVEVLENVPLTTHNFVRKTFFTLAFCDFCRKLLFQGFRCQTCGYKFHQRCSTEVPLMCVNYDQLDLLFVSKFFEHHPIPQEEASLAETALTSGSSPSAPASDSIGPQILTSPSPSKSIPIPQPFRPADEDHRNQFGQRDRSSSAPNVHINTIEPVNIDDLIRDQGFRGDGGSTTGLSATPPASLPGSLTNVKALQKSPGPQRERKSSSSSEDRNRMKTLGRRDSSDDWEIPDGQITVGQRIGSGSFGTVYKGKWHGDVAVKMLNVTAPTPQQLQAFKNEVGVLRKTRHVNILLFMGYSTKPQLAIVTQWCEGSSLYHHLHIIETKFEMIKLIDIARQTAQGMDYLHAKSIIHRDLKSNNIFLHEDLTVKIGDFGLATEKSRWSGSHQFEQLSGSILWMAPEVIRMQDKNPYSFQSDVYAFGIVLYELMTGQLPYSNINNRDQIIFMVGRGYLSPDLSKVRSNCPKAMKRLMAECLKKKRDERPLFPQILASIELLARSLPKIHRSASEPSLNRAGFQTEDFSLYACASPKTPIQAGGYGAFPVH
Chain of RET (M918T) (P07949 29-1114 M918T): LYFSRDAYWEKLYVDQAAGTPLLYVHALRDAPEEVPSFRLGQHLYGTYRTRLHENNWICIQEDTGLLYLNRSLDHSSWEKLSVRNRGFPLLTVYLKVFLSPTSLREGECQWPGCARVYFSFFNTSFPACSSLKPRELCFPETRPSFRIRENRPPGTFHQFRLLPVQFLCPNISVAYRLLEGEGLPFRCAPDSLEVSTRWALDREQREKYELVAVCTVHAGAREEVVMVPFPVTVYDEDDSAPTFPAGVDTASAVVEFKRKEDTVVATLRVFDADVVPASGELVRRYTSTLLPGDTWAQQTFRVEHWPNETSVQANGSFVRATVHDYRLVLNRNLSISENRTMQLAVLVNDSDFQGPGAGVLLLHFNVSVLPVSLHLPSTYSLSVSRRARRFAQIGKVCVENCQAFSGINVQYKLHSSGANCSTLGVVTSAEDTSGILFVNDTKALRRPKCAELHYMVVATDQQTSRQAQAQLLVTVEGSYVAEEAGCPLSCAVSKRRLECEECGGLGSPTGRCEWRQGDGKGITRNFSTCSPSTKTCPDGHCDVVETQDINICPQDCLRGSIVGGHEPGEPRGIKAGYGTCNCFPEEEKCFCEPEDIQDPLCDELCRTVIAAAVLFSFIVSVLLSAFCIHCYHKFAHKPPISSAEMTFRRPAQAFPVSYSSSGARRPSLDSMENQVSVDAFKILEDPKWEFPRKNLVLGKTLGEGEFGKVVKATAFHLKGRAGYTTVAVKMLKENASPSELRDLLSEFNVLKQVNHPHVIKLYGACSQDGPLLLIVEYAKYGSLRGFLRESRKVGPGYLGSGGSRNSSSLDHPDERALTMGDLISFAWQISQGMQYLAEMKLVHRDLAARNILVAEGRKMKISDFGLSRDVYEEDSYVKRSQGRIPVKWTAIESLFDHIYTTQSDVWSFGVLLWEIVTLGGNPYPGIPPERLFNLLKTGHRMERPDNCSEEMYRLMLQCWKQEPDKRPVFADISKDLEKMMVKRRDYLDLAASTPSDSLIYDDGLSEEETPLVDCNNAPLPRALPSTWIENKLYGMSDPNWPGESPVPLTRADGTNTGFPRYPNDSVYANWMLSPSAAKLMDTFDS
Chain of PRKD2 (Q9BZL6 whole entry): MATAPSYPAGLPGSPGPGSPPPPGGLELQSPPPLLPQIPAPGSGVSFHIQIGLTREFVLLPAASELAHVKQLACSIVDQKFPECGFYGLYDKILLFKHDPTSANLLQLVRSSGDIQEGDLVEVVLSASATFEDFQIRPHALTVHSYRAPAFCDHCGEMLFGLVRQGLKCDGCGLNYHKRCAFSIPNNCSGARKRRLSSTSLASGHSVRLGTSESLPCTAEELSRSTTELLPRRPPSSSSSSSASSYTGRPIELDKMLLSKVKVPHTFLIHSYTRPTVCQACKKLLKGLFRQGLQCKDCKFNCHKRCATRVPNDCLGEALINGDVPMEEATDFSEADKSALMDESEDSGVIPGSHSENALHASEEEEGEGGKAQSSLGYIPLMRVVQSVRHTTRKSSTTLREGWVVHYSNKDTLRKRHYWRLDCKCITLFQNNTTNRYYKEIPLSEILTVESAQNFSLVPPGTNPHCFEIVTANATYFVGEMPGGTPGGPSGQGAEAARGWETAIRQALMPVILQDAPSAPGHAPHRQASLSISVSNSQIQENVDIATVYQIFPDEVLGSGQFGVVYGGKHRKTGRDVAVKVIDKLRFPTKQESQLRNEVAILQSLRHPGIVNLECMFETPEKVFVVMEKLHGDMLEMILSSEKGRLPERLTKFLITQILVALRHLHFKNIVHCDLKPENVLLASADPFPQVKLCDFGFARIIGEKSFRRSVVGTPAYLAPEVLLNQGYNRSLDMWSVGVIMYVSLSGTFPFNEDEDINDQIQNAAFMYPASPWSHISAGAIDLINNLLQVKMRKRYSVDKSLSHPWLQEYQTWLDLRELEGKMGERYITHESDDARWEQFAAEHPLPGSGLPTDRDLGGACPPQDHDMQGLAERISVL
Chain of PIK3CA (P42336 whole entry): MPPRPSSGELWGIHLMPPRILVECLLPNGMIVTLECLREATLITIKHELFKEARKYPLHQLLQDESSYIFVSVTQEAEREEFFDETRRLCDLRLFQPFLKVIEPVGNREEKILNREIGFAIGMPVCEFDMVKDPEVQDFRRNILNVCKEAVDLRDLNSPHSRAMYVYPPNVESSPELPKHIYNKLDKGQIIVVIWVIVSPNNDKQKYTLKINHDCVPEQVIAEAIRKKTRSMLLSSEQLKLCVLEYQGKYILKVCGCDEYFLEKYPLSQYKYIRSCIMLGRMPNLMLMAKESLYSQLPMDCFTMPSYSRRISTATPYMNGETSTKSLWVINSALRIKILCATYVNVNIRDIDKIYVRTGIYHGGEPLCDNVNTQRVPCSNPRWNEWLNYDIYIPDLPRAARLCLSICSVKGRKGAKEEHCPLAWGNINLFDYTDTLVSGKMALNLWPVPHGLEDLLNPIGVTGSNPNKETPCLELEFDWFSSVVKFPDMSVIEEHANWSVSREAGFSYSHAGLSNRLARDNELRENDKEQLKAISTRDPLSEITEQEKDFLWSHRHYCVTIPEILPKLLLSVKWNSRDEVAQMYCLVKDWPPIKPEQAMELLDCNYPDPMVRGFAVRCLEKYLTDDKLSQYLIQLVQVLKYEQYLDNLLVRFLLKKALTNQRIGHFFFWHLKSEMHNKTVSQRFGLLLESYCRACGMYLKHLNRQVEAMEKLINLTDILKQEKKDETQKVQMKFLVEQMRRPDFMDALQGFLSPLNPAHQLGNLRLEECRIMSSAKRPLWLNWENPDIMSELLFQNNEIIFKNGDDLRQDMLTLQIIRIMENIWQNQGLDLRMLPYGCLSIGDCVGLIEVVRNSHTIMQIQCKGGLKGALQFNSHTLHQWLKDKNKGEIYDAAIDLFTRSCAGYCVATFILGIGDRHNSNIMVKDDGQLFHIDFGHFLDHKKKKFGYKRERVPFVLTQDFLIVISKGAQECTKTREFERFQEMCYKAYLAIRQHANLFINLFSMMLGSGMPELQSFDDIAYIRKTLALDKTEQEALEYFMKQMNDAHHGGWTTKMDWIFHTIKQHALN
Chain of CSNK1D (P48730 whole entry): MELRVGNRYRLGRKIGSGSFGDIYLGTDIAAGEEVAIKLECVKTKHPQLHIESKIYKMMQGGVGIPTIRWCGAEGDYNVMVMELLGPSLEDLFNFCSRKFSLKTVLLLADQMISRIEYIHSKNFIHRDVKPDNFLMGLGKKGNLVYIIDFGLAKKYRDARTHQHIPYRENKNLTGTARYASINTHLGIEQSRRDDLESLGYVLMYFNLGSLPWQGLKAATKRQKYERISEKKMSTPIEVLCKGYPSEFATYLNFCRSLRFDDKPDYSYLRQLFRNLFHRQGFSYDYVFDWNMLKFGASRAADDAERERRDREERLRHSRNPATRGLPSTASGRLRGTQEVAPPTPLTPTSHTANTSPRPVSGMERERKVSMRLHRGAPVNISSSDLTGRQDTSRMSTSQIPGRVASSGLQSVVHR
Chain of TYK2 (JH2domain-pseudokinase) (P29597 589-875 limits assumed): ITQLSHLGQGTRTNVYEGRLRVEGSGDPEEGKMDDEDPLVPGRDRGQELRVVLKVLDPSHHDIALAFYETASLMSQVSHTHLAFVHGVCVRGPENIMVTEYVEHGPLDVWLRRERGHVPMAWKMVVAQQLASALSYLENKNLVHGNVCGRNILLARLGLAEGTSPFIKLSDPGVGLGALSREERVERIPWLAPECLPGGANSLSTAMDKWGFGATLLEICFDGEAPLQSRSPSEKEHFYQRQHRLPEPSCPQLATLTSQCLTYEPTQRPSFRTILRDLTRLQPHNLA

## Cc1cc(Oc2cc(NC(=O)C3CC3)ncn2)ccc1NC(=O)Nc1ccc(Cl)c(C(F)(F)F)c1 [CBT-102]
BRAF (V600E)
  remaining activity at 1 µM: 1.8%
[1]
  remaining activity at 1 µM: 83%
WNK4
  remaining activity at 1 µM: 89%
FLT3 (ITD, F691L)
  % Ctrl @ 1000 nM: 86%
TNK2
  remaining activity at 1 µM: 93%
[2]
  remaining activity at 1 µM: 20%
SRC
  remaining activity at 1 µM: 76%
[3]
  remaining activity at 1 µM: 100%
[4]
  F4-80 IHC score (%) in MC-38 tumor tissue: significantly reduced
SgK110
  remaining activity at 1 µM: 98%
RIPK5
  remaining activity at 1 µM: 100%
NEK2
  remaining activity at 1 µM: 98%
MYO3A
  remaining activity at 1 µM: 81%
CSNK1D
  remaining activity at 1 µM: 77%
ERN1
  remaining activity at 1 µM: 78%
FGR
  remaining activity at 1 µM: 41%
MARK3
  remaining activity at 1 µM: 100%
PIK3CA
  remaining activity at 1 µM: 100%
p38-alpha
  remaining activity at 1 µM: 0%
ERK8
  remaining activity at 1 µM: 0.6%
RET (M918T)
  remaining activity at 1 µM: 0.1%
WEE2
  remaining activity at 1 µM: 97%
EPHB1
  remaining activity at 1 µM: 38%
MEK6
  remaining activity at 1 µM: 96%
KIT
  remaining activity at 1 µM: 0%
[5]
  remaining activity at 1 µM: 100%
NEK1
  remaining activity at 1 µM: 100%
PRKD2
  remaining activity at 1 µM: 100%
TNK1
  remaining activity at 1 µM: 52%
ERK4
  remaining activity at 1 µM: 91%
BUB1
  remaining activity at 1 µM: 100%
FES
  remaining activity at 1 µM: 68%
LYN
  remaining activity at 1 µM: 20%
MINK
  remaining activity at 1 µM: 35%
FLT3-autoinhibited
  remaining activity at 1 µM: 90%
CDKL1
  remaining activity at 1 µM: 65%
GSK3A
  remaining activity at 1 µM: 18%
STK35
  remaining activity at 1 µM: 93%
